Measurements reported in patent US5025036A, “Catechol carboxylic acids” (Hoffmann-La Roche Inc., priority 1989, dated 1991).

Target: T1, Δ^5 -lipoxygenase from rat basophilic leukemia (RBL-1) cells (Rattus norvegicus, UniProt P12527)
T1 construct: The isolated cytosolic fraction was stored in liquid N2 for up to 8 weeks without loss of 5-LO enzyme activity; endogenous in cells; host or cells: RBL-1 cells (ATCC CRL 1378), 113,000×g supernatant (cytosol)
T1 sequence (P12527 1-673): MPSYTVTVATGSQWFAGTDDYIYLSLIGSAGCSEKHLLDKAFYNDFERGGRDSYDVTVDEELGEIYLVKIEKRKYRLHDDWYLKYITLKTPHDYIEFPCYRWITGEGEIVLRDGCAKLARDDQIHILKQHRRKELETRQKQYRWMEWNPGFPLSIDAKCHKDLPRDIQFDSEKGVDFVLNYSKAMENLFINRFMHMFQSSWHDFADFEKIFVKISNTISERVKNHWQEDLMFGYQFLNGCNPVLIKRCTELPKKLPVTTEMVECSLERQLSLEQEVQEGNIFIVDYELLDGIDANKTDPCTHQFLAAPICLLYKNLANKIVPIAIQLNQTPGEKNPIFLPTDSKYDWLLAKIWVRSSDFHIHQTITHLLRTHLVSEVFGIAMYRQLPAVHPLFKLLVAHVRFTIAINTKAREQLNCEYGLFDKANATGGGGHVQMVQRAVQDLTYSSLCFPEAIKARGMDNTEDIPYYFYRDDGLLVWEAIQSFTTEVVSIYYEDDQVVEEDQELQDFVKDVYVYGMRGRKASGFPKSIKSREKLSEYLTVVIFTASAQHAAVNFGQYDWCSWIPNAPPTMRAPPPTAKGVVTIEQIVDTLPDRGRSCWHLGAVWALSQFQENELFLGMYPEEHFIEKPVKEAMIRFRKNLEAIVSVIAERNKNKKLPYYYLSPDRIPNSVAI
Assay: In vitro test for Δ^5-lipoxygenase inhibitors (5-HETE radioimmunoassay)
Type: biochemical
Conditions: for inhibition at 0.1 µM: read-out: Inhib. of Δ^5 Lipoxygenase, % inhibition at 0.1 μM; for IC50: RBL-1 5-LO, 5-HETE formation, read-out: Inhib. of Δ^5 Lipoxygenase IC50; for inhibition at 1 µM: read-out: Inhib. of Δ^5 Lipoxygenase, % inhibition at 1 μM
Method: RBL-1 cells (CRL 1378) were obtained from the American Type Culture Collection, Rockville, MD. DMEM and glutamine were purchased from Flow Labs, McLean, Va. FBS (Gibco, Grand Island, N.Y.) was heat-inactivated for 1 hour at 56° C. Reagents for protein determinations were obtained from Biorad, Rockville Center, N.Y. Arachidonic acid (approx. 99%), ATP (disodium salt), BHT, dextran (clinical grade), tetrasodium EDTA, gelatin, gentamycin sulfate solution, reduced glutathione, 1 M HEPES buffer, indomethacin, NaCl, reduced NADPH, Trizma 7.2, and Trizma 8.5 were purchased from Sigma Chemical, St. Louis, Mo. CaCL2 dihydrate, Norit A charcoal, and citric acid monohydrate were obtained from Fisher Scientific, Pittsburgh, Pa. […] A synthetic 5-HETE standard was supplied by Dr. M. Rosenberger, Dept. of Medicinal Chemistry, Hoffmann La-Roche, Nutley, N.J.; [see Corey, E. J., and Hashimoto, S. (1981) Tet. […] Approximately 7-9 days after thawing, RBL-1 cells growing in log phase were seeded at a density of 7500 viable cells/ml in a closed 89-liter spinner flask. […] RBL-1 cells were harvested by centrifugation at 4° C. at 1500×g for 10 minutes and were washed 3 times with ice cold 0.05M tris-hCl, pH 7.2, tetrasodium EDTA (buffer 1). The cells were washed last in 0.05M Tris-HCl containing 14 μM indomethacin, 1 mM glutathione, 1.5 mM NaCl, and 1 mM tetrasodium EDTA (buffer 2), resuspended at a density of 5×108'/ml approximately 10 ml) and disrupted manually at 4° C. using a 40 ml Dounce (type A pestle) homogenizer. After 5 minutes of homogenization, 95% cell lysis was confirmed by phase contrast microscopy. The broken cells were diluted 1:2 with buffer 2 and centrifuged at 12,380×g for 10 minutes at 4° C. to pellet cellular debris and granules. The 12,380×g supernatant was centrifuged at 113,000×g for 60 minutes to pellet microsomes. The high-speed supernatant (5.9±0.48 mg/ml protein) was frozen immediately in 1 ml aliquots using a dry ice/acetone bath. The isolated cytosolic fraction was stored in liquid N2 for up to 8 weeks without loss of 5-LO enzyme activity. Compounds were dissolved at 25 mM concentration in DMSO, then diluted to final concentrations using 95% ethanol. For a typical enzyme assay, the partially purified 5-LO preparation was preincubated with drug or vehicle for 10 minutes at 30° C. The assay tubes were then transferred at a 37° C. water bath where they received arachidonic acid (8.25 μM final concentration) to initiate 5-LO activity. […] The samples were immediately cooled on ice and neutralized by dilution with 0.05M Tris-HCl, pH 8.5, which contained 25 mg/1 BHT. A boiled cytosol control was placed at the end of each assay to emasure non-enzymatic oxidation of arachidonic acid. […] Under the assay conditions described, the 5-LO catalyzed the conversion of arachidonic acid to 5-HPETE which, as a consequence of peroxidase activity, was reduced to 5-HETE. A specific radioimmunoassay was employed to quantitate the amount (pmoles) of 5-HETE formed during the enzyme reaction. To prepare the immunogen, Dr. M. Rosenberger (Dept. of Medicinal Chemistry) converted the racemic 5-HETE lactone (Corey, E. J., and Hashimoto, S. (1981) Tet. Letters, 22, 299-302) to its hydrazine derivative. The hydrazide was conjugated to thiolated Keyhole Limpet Hemocyanin (Young, […]., and Rokach, J. (1982) Prostaglandins 23, 603-613) using N-ethyl-maleimide as previously described for LTB4 by (Young, R., N, Zomboni, R. and Rokach, J. 91983) Prostaglandins, 26, 605-613). New Zealand White rabbits received multiple intradermal injections on their backs with […] conjugate emulsified in complete Freund's adjuvant. A schedule of injections reported by Salmon (Salmon, J. A. (1978) Prostaglandins, 15, 383-397) was followed. After the monthly i.p. booster injections, blood was obtained from the marginal ear vein 5-7 days later and assessed for antibody titer. […]

SMILES | IC50 | further results
CCCc1c(OCCCCc2cccc(O)c2O)ccc(C(C)=O)c1O [1-[2-Hydroxy-4-[4-(2,3-dihydroxyphenyl)butoxy]-3-propylphenyl]ethanone] |  | inhibition at 0.01 µM (read-out: Inhib. of Δ^5 Lipoxygenase, % inhibition at 0.01 μM): 48%
CCCc1c(OCCCCCCc2ccc(C(C)C)c(O)c2O)ccc(C(C)=O)c1O [1-[2-hydroxy-4 [6-[2,3 dihydroxy-4-(1-methylethyl)phenyl]hexyloxy]-3 propylphenyl]ethanone] |  | inhibition at 0.1 µM: 35%
CCCc1c(OCCCc2ccc(O)c(O)c2)ccc(C(=O)O)c1O [4-[3-(3,4-Dihydroxyphenyl)propoxy]-2-hydroxy-3-propylbenzoic acid] |  | inhibition at 1 µM: 97%
CCCc1c(OCCCCc2cccc(O)c2O)ccc(C(=O)O)c1O [4-[4-(2,3-dihydroxyphenyl)butoxy]-2-hydroxy-3-propylbenzoic acid] | 90 nM | 
CCCc1c(OCCCCCCc2cccc(O)c2O)ccc(C(=O)OCC)c1O [4-[6-(2,3-Dihydroxyphenyl)hexyloxy]-2-hydroxy-3-propylbenzoic acid ethyl ester] |  | inhibition at 1 µM: 100%
O=C(O)c1ccc(OCCCCCCc2cccc(O)c2O)cc1O [4-[6-(2,3-Dihydroxyphenyl)hexyloxy]-2-hydroxybenzoic acid] | 320 nM | 
O=C(O)c1ccc(OCCCCCCc2cccc(O)c2O)cc1 [4-[6-(2,3-Dihydroxyphenyl)hexyloxy]benzoic acid] | 170 nM | 
CCCc1c(OCCCCCCc2ccc(O)c(O)c2)ccc(C(=O)O)c1O [4-[6-(3,4-dihydroxyphenyl)hexyloxy]-2-hydroxy-3-propylbenzoic acid] | 5 nM | 
CCCc1c(OCCCCCCc2ccc(C(C)C)c(O)c2O)ccc(C(=O)O)c1O [4-[6-[2,3-dihydroxy-4-(1-methylethyl)phenyl]hexyloxy]-2-hydroxy-3-propylbenzoic acid] | 100 nM | 
CCCc1c(OCCCCCCCCc2cccc(O)c2O)ccc(C(=O)O)c1O [4-[8-(2,3-dihydroxyphenyl)octyloxy]-2-hydroxy-3-propylbenzoic acid] |  | inhibition at 0.1 µM: 62%
CCCc1c(O)c(C(=O)O)cc(Cl)c1OCCCCCCc1cccc(O)c1O [5-Chloro-2-hydroxy-4-[6-(2,3-dihydroxyphenyl]hexyloxy]-3-propylbenzoic acid] |  | inhibition at 0.1 µM: 48%

Continued, in another order:

IC50 | SMILES | further results
30 nM | CCCc1c(OCCCCCCc2cccc(O)c2O)ccc(C(C)=O)c1O [1-[2-hydroxy-4-[6-(2,3-dihydroxyphenyl)hexyloxy]-3-propylphenyl]ethanone] | 
6 nM | CCCc1c(OCCCCCc2cccc(O)c2O)ccc(C(=O)O)c1O [4-[5-(2,3-Dihydroxyphenyl)pentyloxy]-2-hydroxy-3-propylbenzoic acid] | 
20 nM | CCCc1c(OCCCCCCc2cccc(O)c2O)ccc(C(=O)O)c1O [4-[6-(2,3-Dihydroxyphenyl)hexyloxy]-2-hydroxy-3-propylbenzoic acid] | 
5 nM | CCCc1c(OCCCCCCCc2cccc(O)c2O)ccc(C(=O)O)c1O [4-[7-(2,3-dihydroxyphenyl)heptyloxy]-2-hydroxy-3-propylbenzoic acid] | 
20 nM | CCCc1c(OCCCCCCCCCCc2cccc(O)c2O)ccc(C(=O)O)c1O [4-[10-(2,3-dihydroxyphenyl)decyloxy]-2-hydroxy-3-propylbenzoic acid] | 
